Measured values published in publication PMC8850458, “The AUTOTAC chemical biology platform for targeted protein degradation via the autophagy-lysosome system” (Nature Communications, 2022).
pIC50: −log10 of the molar value. Where “and” joins values, the source holds several entries; their conditions need not be identical. Equal values may be shown once.

How the values were obtained:
Ub^+ and p62^+ puncta = assay: ICC of Ub (FK2) and p62 puncta in HeLa cells; type: cell-based; settings: Fig. 4i
Method: Fig. 4 Targeted autophagic delivery and degradation of misfolded protein cargoes using AUTOTACs with aggregate-binding warhead. a A model illustrating the mode of action of aggregate-targeting AUTOTAC. b Chemical structures of PBA-1105, PBA-1106, Anle138b-F105 and PBA-1105b. c In vitro p62 oligomerization assay in HEK293T cells incubated with the indicated compounds in (b). d WB in HEK293T cells treated with MG132 (1 μM, 24 h), HCQ (10 μM, 24 h), PBA-1105, YTK-1105, and PBA (1 μM, 24 h). e Identical to (d), but with Anle-F105. f ICC of HeLa cells treated with HCQ (10 μM, 24 h), MG132 (2 μM, 18 h) or both in the presence of PBA-1106, YOK-1106 or PBA (1 μM, 24 h). Scale bar, 10 μm. g Quantification of (f) (n = 3, 50 cells). h ICC of HeLa cells treated with Anle138b-F105 (1 μM, 24 h). Scale bar, 10 μm. i Quantification of (h) (n = 3, 50 cells). When indicated, n = 3 biologically independent experiments each counting 50 cells. Data are presented as mean values ± SD where relevant. P-values (from a two-sided unpaired t test): ***P < 7.66E−05. Source data are provided with this paper.
Cells were cultured on coverslips coated with poly-L-lysine (Sigma) to observe cellular localization of proteins. Using 4% paraformaldehyde in PBS (pH 7.4), the cells were fixed for 15 min at room temperature and washed three times for 5 min with PBS. After fixing, the cells were permeabilized with 0.5% Triton X-100 in PBS solution for 15 min and washed three times with PBS for 5 min. The cells were blocked containing 2% BSA in PBS solution for 1 h at room temperature. Subsequently, the cells were incubated with primary antibody diluted in 2% BSA/PBS solution overnight at 4 °C, followed by washing the cells three times for 10 min with PBS and incubated with Alexa Fluor-conjugated secondary antibody diluted in 2% BSA/PBS for 30 min at room temperature. Using a DAPI-containing mounting medium (Vector Laboratories), the coverslips were mounted on glass slides. Confocal images were taken by laser scanning confocal microscope 510 Meta (Zeiss) and analyzed by Zeiss LSM Image Browser (ver. 4.2.0.121). […] Quantification results are shown as mean ± S.D. or S.E.M. of three independent experiments

tauP301L = tauP301L (Homo sapiens, UniProt P10636, P618L); assay: WB degradation of tauP301L in SH-SY5Y-tauP301L cells; type: cell-based; settings: densitometry, dosage degradation, SH-SY5Y-Tau-TiFC; for Tau normalized to GAPDH and control, AVG %: average of N=3
Sequence of tauP301L (P10636 1-441 isoform P10636-8 P301L): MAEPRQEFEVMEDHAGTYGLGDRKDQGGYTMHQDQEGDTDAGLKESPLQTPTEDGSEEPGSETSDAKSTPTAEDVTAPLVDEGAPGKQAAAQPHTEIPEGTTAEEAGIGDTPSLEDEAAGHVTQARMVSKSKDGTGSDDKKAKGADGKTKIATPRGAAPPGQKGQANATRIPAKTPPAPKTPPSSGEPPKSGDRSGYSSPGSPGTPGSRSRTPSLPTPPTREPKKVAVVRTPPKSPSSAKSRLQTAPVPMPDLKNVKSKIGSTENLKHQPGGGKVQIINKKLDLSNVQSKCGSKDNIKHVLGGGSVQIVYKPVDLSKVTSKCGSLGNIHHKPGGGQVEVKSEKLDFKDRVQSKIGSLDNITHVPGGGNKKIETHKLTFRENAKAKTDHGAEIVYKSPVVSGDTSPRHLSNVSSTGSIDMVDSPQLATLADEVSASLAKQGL
Method: (§1) Adherent cells were washed with phosphate-buffered saline (PBS) and cell pellets were lysed in SDS-based sample buffer (277.8 mM Tris-HCI, pH 6.8, 4.4% LDS, 44.4% (v/v) glycerol) containing beta-mercaptoethanol. Alternatively, cell pellets or protein supernatants were lysed in 5X Laemmli sample buffer. Whole-cell lysates were separated using SDS-PAGE, and transferred onto polyvinyllidene difluoride membranes at 100 V for 2 h at 4 °C. The membrane was incubated with a blocking solution consisting 4% skim milk in PBS solution for 30 min at room temperature and incubated with primary antibodies overnight, followed by incubation with host-specific HRP-conjugated secondary antibodies (1:10000 dilution). For signal detection, the membrane was developed with a mixture of ECL solution (Thermo Fisher Scientific) using X-ray films. Densitometry of developed bands was measured and analyzed with ImageJ (NIH, Bethesda).

[1] = target: T1, methionine aminopeptidase 2 (MetAP2) (Homo sapiens, UniProt P50579); assay: Western blot degradation of MetAP2; type: cell-based; settings: 293T, 24 h
T1 construct: Targeted autophagic degradation of endogenous oncoproteins by AUTOTAC; endogenous in cells; host or cells: HEK293 / HEK293T, U87-MG
T1 sequence (P50579 whole entry): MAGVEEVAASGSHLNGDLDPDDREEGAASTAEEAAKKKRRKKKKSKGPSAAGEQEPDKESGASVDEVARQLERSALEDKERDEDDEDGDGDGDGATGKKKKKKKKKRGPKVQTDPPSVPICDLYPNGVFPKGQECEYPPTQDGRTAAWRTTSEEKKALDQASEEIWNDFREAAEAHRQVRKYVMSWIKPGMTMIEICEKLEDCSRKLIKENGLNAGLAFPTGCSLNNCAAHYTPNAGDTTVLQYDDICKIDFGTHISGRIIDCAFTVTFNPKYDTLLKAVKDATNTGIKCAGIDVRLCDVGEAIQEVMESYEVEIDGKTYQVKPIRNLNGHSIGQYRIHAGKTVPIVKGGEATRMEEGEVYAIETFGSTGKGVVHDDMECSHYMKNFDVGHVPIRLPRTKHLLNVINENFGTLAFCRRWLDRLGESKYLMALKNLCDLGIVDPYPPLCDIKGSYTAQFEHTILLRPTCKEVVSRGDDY
Method: as §1

ACHN cells = assay: WST-based cell viability assay in ACHN cells; settings: for WST assay viability, AVG % / WST assay raw reading / WST assay viability relative to con = 100: ACHN; for WST assay raw reading / WST assay viability relative to con = 100: duplicates
[2] = test system: U87-MG glioblastoma cells; assay: Wound healing assay in U87-MG cells; type: cell-based; parameters: wound area, single experiment / wound area, Average: unit not given here; settings: Fig. S4j
Method: To analyze cell migration in two dimensions, U-87 MG or ACHN cells were plated to a monolayer. Cells were scratched with a sterile 10 μl pipette tip and the debris was removed using medium. Cells were treated with compounds and incubated for different time to monitor cell behavior. Photographs were obtained using a microscope at different time point.

[3] = 4h, relative to 0h, con 63.7844
[4] = 12h, relative to 0h, con 49.0497
[5] = 24h, relative to 0h, con 11.2855

Fc1ccc(COc2cccc(CNCCOCCOCCNc3cccc(-c4cc(-c5ccc6c(c5)OCO6)n[nH]4)c3)c2)cc1 [Anle.-F105]
FK2 (Ub) / p62 colocalization, AVG of cells per 50 cells (Ub^+ and p62^+ puncta; con vs Anle.-F105): 44.6667
FK2 (Ub) / p62 colocalization, percentage AVG (Ub^+ and p62^+ puncta; con vs Anle.-F105): 89.3333 percentage
FK2 (Ub) / p62 colocalization, cells counted per 50 cells (individual replicates) (Ub^+ and p62^+ puncta; con vs Anle.-F105, count out of 50 cells): 44 and 42 and 48
Tau normalized to GAPDH and control, AVG % (tauP301L; 1 nM): 89.5946%
Tau normalized to GAPDH and control, AVG % (tauP301L; 10 nM): 39.4372%
Tau normalized to GAPDH and control, AVG % (tauP301L; 100 nM): 27.9865%
Tau normalized to GAPDH and control, AVG % (tauP301L; 1 uM): 22.4452%
Tau normalized to GAPDH and control, AVG % (tauP301L; 2.5uM): 20.2653%
remaining activity at 2.5 µM (tauP301L; 2.5uM, read-out: (Tau normalized to GAPDH) normalized to control, percentage (individual replicates N=1, N=2, N=3)): 14.5%
Tau normalized to GAPDH and control, AVG % (tauP301L; 5uM): 9.605%
remaining activity at 5 µM (tauP301L; 5uM, read-out: (Tau normalized to GAPDH) normalized to control, percentage (individual replicates N=1, N=2, N=3)): 9.88%
Tau normalized to GAPDH and control, AVG % (tauP301L; 10uM): 11.8682%
remaining activity at 10 µM (tauP301L; 10uM, read-out: (Tau normalized to GAPDH) normalized to control, percentage (individual replicates N=1, N=2, N=3)): 10.3%

CO[C@@H]1[C@H](OC(=O)/C=C/C=C/C=C/C=C/C(=O)O)CC[C@]2(CO2)[C@H]1[C@@]1(C)O[C@@H]1CC=C(C)C [Fumagillin, reference compound]
MetAP2 normalized to control, AVG % ([1]; 2.5uM): 147.616%
MetAP2 normalized to control, AVG % ([1]; 10uM): 145.983%

Oc1ccc(-c2c(-c3ccccc3)nn3c(C(F)(F)F)cc(C(F)(F)F)nc23)cc1 [PHTPP, reference compound]
pIC50 (ACHN cells; ACHN cells, WST-based viability assay, read-out: cytotoxicity IC50): 4.74
WST assay viability, AVG % (ACHN cells; 0.01uM): 98.8656%
WST assay raw reading (ACHN cells; 0.01uM): 1.014 and 0.955
WST assay viability relative to con = 100 (ACHN cells; 0.01uM): 102.269 and 95.4624
WST assay viability, AVG % (ACHN cells; 0.1uM): 95.5201%
WST assay raw reading (ACHN cells; 0.1uM): 0.951 and 0.96
WST assay viability relative to con = 100 (ACHN cells; 0.1uM): 95.001 and 96.0392
WST assay viability, AVG % (ACHN cells; 1uM): 90.0981%
WST assay raw reading (ACHN cells; 1uM): 0.95 and 0.867
WST assay viability relative to con = 100 (ACHN cells; 1uM): 94.8856 and 85.3105
WST assay viability, AVG % (ACHN cells; 10uM): 86.1757%
WST assay raw reading (ACHN cells; 10uM): 0.866 and 0.883
WST assay viability relative to con = 100 (ACHN cells; 10uM): 85.1952 and 87.1563
WST assay viability, AVG % (ACHN cells; 50uM): 10.8441%
WST assay raw reading (ACHN cells; 50uM): 0.239 and 0.204
WST assay viability relative to con = 100 (ACHN cells; 50uM): 12.8629 and 8.825
WST assay viability, AVG % (ACHN cells; 100uM): 2.365%
WST assay raw reading (ACHN cells; 100uM): 0.151 and 0.145
WST assay viability relative to con = 100 (ACHN cells; 100uM): 2.711 and 2.019

COC1C(OC(=O)C=CC=CC=CC=CC(=O)NCCOCCOCCNCc2cccc(OCc3ccccc3)c2)CCC2(CO2)C1C1(C)OC1CC=C(C)C (stereo not shown) [fuma-105]
wound area, single experiment ([2]; 0h): 1322200 and 1143900 and 1293400
wound area, Average % ([2]; 0h (reference = 100)): 100%
wound area, Average ([2]; 0h, con 1278325): 1253167
wound area, single experiment ([2]; 4h): 1229909 and 1112400 and 1025300
wound area, Average ([2]; 4h, con 815372): 1122536
wound area, Average % [2, 3]: 89.576%
wound area, single experiment ([2]; 12h): 999235 and 1073250 and 992572
wound area, Average ([2]; 12h, con 627015): 1021686
wound area, Average % [2, 4]: 81.5283%
wound area, single experiment ([2]; 24h): 562341 and 671624 and 616277
wound area, Average ([2]; 24h, con 144265): 616747
wound area, Average % [2, 5]: 49.2151%

COC1C(OC(=O)C=CC=CC=CC=CC(=O)O)CCC2(CO2)C1C1(C)OC1CC=C(C)C (stereo not shown) [fuma]
wound area, single experiment ([2]; 0h): 1171666 and 1405232 and 1275616
wound area, Average % ([2]; 0h (reference = 100)): 100%
wound area, Average ([2]; 0h, con 1278325): 1284171
wound area, single experiment ([2]; 4h): 1044299 and 1099925 and 1033344
wound area, Average ([2]; 4h, con 815372): 1059189
wound area, Average % [2, 3]: 82.4804%
wound area, single experiment ([2]; 12h): 806233 and 764432
wound area, Average ([2]; 12h, con 627015): 778366
wound area, Average % [2, 4]: 60.6123%
wound area, single experiment ([2]; 24h): 429520 and 509220
wound area, Average ([2]; 24h, con 144265): 482653
wound area, Average % [2, 5]: 37.5848%
